The values that follow come from PubChem BioAssay (NCI).

Test in all cases: NCI-60 cell line screen, 48 h
Experiment [1] deals with MCF7 breast.
For experiment [2], the system named is SNB-78 CNS.
Experiment [3] deals with XF 498 CNS.
Experiment [4] concerns HOP-18 NSCLC.
Experiment [5] deals with DMS 114 small cell lung.
Experiment [6] deals with M19-MEL melanoma.
Experiment [7] concerns MDA-N.
For experiment [8], the system named is RXF-631 renal.

Values joined by “and” are separate entries in the source; they are usually repeats but may differ in a detail not shown here. Equal values may be shown once.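 Following 48 hours of exposure in 96-well plates, responses at five concentrations were used to interpolate endpoints linearly. GI50 = concentration required for 50% inhibition of growth. TGI denotes the concentration required for complete inhibition of growth.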

Consider `COc1cccc2c1cc1c3c(cc4c(c32)OCO4)C(=O)N1`, for which, in experiment [1], the GI50 was 2.96 µM and the TGI amounted to 11.1 µM.

Turning to `O=C(/C=C/c1ccco1)c1ccc(Nc2nc(Nc3ccc(F)cc3)nc(Nc3ccc(F)cc3)n2)cc1`, in experiment [1], the GI50 is 3.74 µM and the TGI was found to be 25.9 µM.

As for `CCCCNC1=C(C(=O)OCC)/C(=N/NC(=O)c2ccccc2O)CO1`, the TGI in experiment [2], in experiment [3], in experiment [4], in experiment [5] and in experiment [6] was > 100 µM throughout.

Consider `Cc1ccc(S(=O)(=O)NC(CO)C(=O)O)cc1` (stereo not given), for which the TGI in experiment [7] and in experiment [1] was > 100 µM throughout.

For the compound `COC(=O)C(C(=O)C(N)=O)c1csc(-n2nc(-c3ccccc3)cc2-c2ccccc2)n1` (stereo not given), the TGI in experiment [2] is > 31.6 µM; in experiment [3], > 31.6 µM; in experiment [4], > 31.6 µM; in experiment [5] it was 25.2 µM; in experiment [6], > 31.6 µM.

As to `COc1ccc(C(=O)c2cc3c(N)c(C(=O)Nc4cccc(OC)c4)sc3nc2C)cc1`, in experiment [1], the GI50 was 0.42 µM and the TGI was > 100 µM.

Regarding `O=C(C=C=Nc1ccccc1)C(=O)N=C=Cc1ccccc1`, in experiment [1], the GI50 is 2.35 µM and the TGI turned out to be 12.6 µM.

As to `CC(=O)Nc1ccc(-c2nnc(SCC(=O)Nc3ccc(Cl)cc3)o2)cc1`, the TGI was > 100 µM in experiment [2], 30.2 µM in experiment [4], 4.29 µM in experiment [5] and 45.4 µM in experiment [6].

With `Cn1cc(C2=C(c3cn(CCCCC(=N)N)c4ccccc34)C(=O)NC2=O)c2ccccc21`, in experiment [1], the GI50 is 10.9 µM and the TGI is > 25 µM.

In the case of `COc1ccc2c([nH]c3c(O)c(-c4c(C)cc5c([nH]c6c(CC=C(C)C)c(OC)ccc65)c4O)c(C)cc32)c1CC=C(C)C`, the TGI in experiment [2], in experiment [4], in experiment [5] and in experiment [6] was > 100 µM throughout.

On to `Nc1c(C(=O)Nc2cccc3ccccc23)sc2nc3c(cc12)C(=O)CCC3`, for which, in experiment [1], the GI50 is 0.206 µM and the TGI is > 100 µM.

`COc1cc(Cn2c(-c3ccccc3)cc3c2-c2oncc2CC3)cc(OC)c1`: in experiment [1], the GI50 is 0.307 µM and the TGI was > 100 µM.

On to `COc1ccc(NC(=O)C2C(=O)N(c3ccc(OC)cc3)C(=O)/C2=N\NC(N)=O)cc1` (stereo not given), for which the values for the TGI in experiment [2], in experiment [4] and in experiment [5] were > 100 µM, 70.7 µM and > 100 µM, respectively.

As to `NS(=O)(=O)c1ccc(NC(=O)c2cccc(NC3=C(Cl)C(=O)N(Cc4ccccc4)C3=O)c2)cc1`, in experiment [1], the GI50 was 3.61 µM and the TGI was 14.6 µM.

In the case of `S=c1c2ccccc2c(=S)n2n1CC=CC2`, the TGI in experiment [2], in experiment [8], in experiment [4], in experiment [5] and in experiment [6] was > 100 µM in each case.

As to `NNC(=O)C(O)C(O)C(=O)NN` (stereo not given), the TGI in experiment [7] and in experiment [1] was > 100 µM in each case.

With `O=C(NOCCO)c1cc(CN2OCCCC2=O)c(F)c(F)c1Nc1ccc(I)cc1F`, in experiment [1], the GI50 is 28.8 µM and > 10 µM; the TGI was > 100 µM.

As to `Cc1cc(Nc2nc(-c3ccncc3)nc3ccccc23)n[nH]1`, in experiment [1], the GI50 was 8.18 µM and the TGI is > 100 µM.

For `O=C(Nc1nc2ccccc2s1)c1cc(-c2ccc(F)cc2)n2nc(-c3ccccc3)cc2n1`, in experiment [1], the GI50 is 5.29 µM and the TGI is > 100 µM.

On to `Cc1ccc(S(=NS(=O)(=O)c2ccc(C)cc2)c2ccc(C)cc2)cc1`, for which the TGI in experiment [7] and in experiment [1] was > 100 µM in each case.

For the compound `CC(C)[Si](OCC1CC(C#N)OC(C)(C)O1)(C(C)C)C(C)C` (stereo not given), the TGI is 52.1 µM in experiment [2], 37 µM in experiment [3], > 100 µM in experiment [4] and 76.9 µM in experiment [6].

As for `CC(=O)OC(=O)O/C=C\CCl`, the TGI in experiment [2], in experiment [8], in experiment [4], in experiment [5] and in experiment [6] was > 100 µM each time.

With `Cc1ccc2nc(NC(=O)C(=O)CC(=O)c3cccc4ccccc34)sc2c1`, the TGI in experiment [2], in experiment [3], in experiment [4] and in experiment [6] was > 100 µM in each case.

Consider `C=CC(C)(O)CC/C=C(\CO)C(=O)OC1C(C)OC(O[C@](C)(C=C)CC/C=C(\CO)C(=O)O[C@H]2C[C@@]3(C(=O)OC4OC(CO)C(O)C(O)C4OC4OC(C)C(OC5OC(CO)C(O)C5O)C(OC5OC(CO)C(O)C(O)C5O)C4O)C(CC2(C)C)C2=CCC4[C@@]5(C)CC[C@H](OC6OC(COC7OC(C)C(O)C(O)C7OC7OCC(O)C(O)C7O)C(O)C(O)C6NC(C)=O)C(C)(C)C5CC[C@@]4(C)[C@]2(C)C[C@H]3O)C(O)C1O` (stereo not given in full), for which, in experiment [1], the GI50 is 0.822 µM and the TGI worked out at 4.1 µM.

Consider `CC(N1CCOCC1)C(O)(c1ccccc1)c1ccccn1` (stereo not given), for which the TGI in experiment [7] and in experiment [1] was > 100 µM in each case.

In the case of `O=C1/C(=C\c2ccccc2)C2OCC=C3CN4CCC56c7ccccc7N1C5C2C3CC46` (stereo not given), in experiment [1], the GI50 was 5.2 µM and the TGI was > 100 µM.

In the case of `O=C(/C=C/c1ccc([N+](=O)[O-])cc1)c1cccc(Nc2nc(Nc3ccccc3)nc(Nc3ccccc3)n2)c1`, in experiment [1], the GI50 is 1.19 µM and the TGI turned out to be 4.21 µM.

With `O=C(/C=C/c1cccc2ccccc12)Nc1ncc(Cc2ccccc2)s1`, in experiment [1], the GI50 is 0.434 µM and the TGI was > 100 µM.

With `CCN(CC)Cc1cc(Nc2c3ccccc3nc3cc(Cl)ccc23)ccc1O`, in experiment [1], the GI50 was 0.96 µM and the TGI was 2.46 µM.

Regarding `Cc1cc(Br)cc(C)c1NC(=O)C(=O)Nn1c(=S)[nH]c2ccccc2c1=O`, the TGI in experiment [7] and in experiment [1] was > 100 µM throughout.

For the compound `Nc1ccn(C2OC(C(OC3OC(CO)C(O)C(N)C3O)C(O)C(O)C(O)C(O)CO)C(N)C(O)C2O)c(=O)n1` (stereo not given), the TGI in experiment [7] and in experiment [1] was > 100 µM in each case.

For `COc1ccc2c(c1)/C(=N/OC(C)=O)c1c-2cnc2ccccc12`, in experiment [1], the GI50 is 39.7 µM and the TGI was > 100 µM.
